Measurements from US20040110826A1, “Receptor Antagonists” (priority 2001, published 2004).

Legend:
α2C-adrenoceptor [1] = target: T1, α2C-adrenoceptor (Homo sapiens, UniProt P18825); details: described in J. Pharmacol. Exp. Ther. 271, 1558 (1994) and Proc. Natl. Acad. Sci. USA 85, 6301 (1988); cited from earlier work
T1 sequence (P18825 1-462): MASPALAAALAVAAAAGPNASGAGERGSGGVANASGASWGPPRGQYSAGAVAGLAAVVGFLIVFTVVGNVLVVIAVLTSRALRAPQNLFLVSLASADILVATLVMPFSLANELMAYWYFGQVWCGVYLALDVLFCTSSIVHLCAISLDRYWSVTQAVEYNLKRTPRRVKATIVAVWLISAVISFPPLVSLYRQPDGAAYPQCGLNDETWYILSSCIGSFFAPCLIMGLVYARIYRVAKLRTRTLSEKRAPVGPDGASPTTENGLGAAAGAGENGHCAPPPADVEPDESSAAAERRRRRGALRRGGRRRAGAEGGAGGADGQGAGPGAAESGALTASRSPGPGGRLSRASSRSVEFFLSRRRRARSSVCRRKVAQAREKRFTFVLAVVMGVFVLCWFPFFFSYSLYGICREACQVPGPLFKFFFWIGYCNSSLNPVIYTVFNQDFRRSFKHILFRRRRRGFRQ

[2] = tested on: MPTP-treated common marmoset; experiment: Anti-dyskinesia activity: LID score in MPTP-treated common marmoset model with repeated L-DOPA; assay type: in vivo; details: L-DOPA-induced dyskinesia (LID) score, test compound plus L-DOPA vs vehicle plus L-DOPA, 4 animals per group
Excerpt: Parkinson's disease is characterized by degeneration and neuronal cell death of the nigrostriatal dopaminergic neurons. In primates, treatment with a dopamine neurotoxin, 1-methyl-4-phenyl-1,2,3,6-tetrahydropyridine (hereinafter referred to as “MPTP”), causes selective degeneration and loss of the nigrostriatal dopaminergic neurons, showing akinesia, rigidity, etc. These MPTP-treated primates are known as a model of Parkinson's disease [Proceedings of the National Academy of Science USA, Vol. 80, p. 4546 (1983)]. Common marmoset belongs to Anthropoidea and is known to show Parkinsonian symptoms caused by MPTP treatment as in the case of other Anthropoidea [Neuroscience Letter, Vol. 57, p. 37 (1985)). On the other hand, current treatment for Parkinson's disease is based primarily on dopamine replacement therapy by administration of L-DOPA. The administration of L-DOPA is effective treatment of symptoms associated with Parkinson's disease (anti-Parkinson activity). However, the long-term therapy using L-DOPA is known to cause loss of medicinal efficacy (wearing off and on-off), dyskinesia, psychosis, etc. Particularly, L-DOPA-induced dyskinesia (hereinafter referred to as “LID”) has become an issue due to the frequency of its development and the pain of the patients. […] 731 (1995)].
This test was carried out using 4 animals per group of female and male common marmosets of 5 to 7 years of age (300 to 375 g in body weight, CLEA Japan). MPTP (RBI) was dissolved in physiological saline for injection (Otsuka Pharmaceutical Co., Ltd.) and subcutaneously administered to each common marmoset once a day for 5 days in a dose of 2.0 mg/kg. More than six weeks after the administration, animals showing chronic symptoms of Parkinson's disease were used to prepare a model of dyskinesia. […] The locomotor activity was measured at 10-minute intervals for 12 hours by a computer-controlled automatic measuring apparatus. […]

α2C-adrenoceptor [3] = target: T1, α2C-adrenoceptor; experiment: α2c-Adrenoceptor binding test (3H-MK-912 binding, HepG2 cell membrane fraction); parameters: the membrane fraction of the cultured cells was used; endogenous in cells; host or cells: HepG2 (human hepatoma) cell membrane fraction; details: 0.5 h, test compound 10^−7 mol/l, read-out: Inhibition ratio (%) against α2c-adrenoceptor binding
Experimental: Adrenoceptor Binding Activity (α2c-Adrenoceptor Binding Test)
This test was carried out according to the method of Schaak et al. [Journal of Pharmacological Experimental Therapeutics, Vol. 281, p. 983 (1997)] as slightly modified.
Human hepatocyto HepG2 cells were cultured in DMEM medium (GIBCO BRL) containing 10% fetal bovine serum (FBS), 100 units/ml penicillin and 100 μg/ml streptomycin, and the membrane fraction of the cultured cells was used. The cultured cells were washed with phosphate-buffered saline (PBS), then scraped with a scraper and recovered by centrifugation at 800 rpm for 5 minutes. To the cells was added a buffer [50 mmol/l tris(hydroxymethyl)aminomethane: Tris, 5 mmol/l ethylenediamine tetraacetic acid (EDTA), pH 7.5], and the cells were suspended using Polytron Homogenizer (Kinematica), followed by centrifugation at 39,000×g for 10 minutes. The precipitate thus obtained was re-suspended in the same amount of the buffer, and the cell suspension was obtained by centrifugation and removing the supernatant in a similar manner.
To 100 μl of the cell suspension were added 80 μl of tritium-labeled MK-912 (methyl-^3H: 2.89 TBq/mmol; New England Nuclear) (final concentration: 1.0 nmol/l) and 20 μl of a test compound. The mixture was allowed to stand at 25° C. for 30 minutes and then rapidly filtered by suction through a glass fiber filter treated with 0.3% polyethyleneimine (GF/C; Whatman). The filter was immediately washed 3 times with 200 μl of an ice-cooled buffer and transferred to a vial. A liquid scintillator (ULTIMA GOLD; Packard) was added thereto and the radioactivity was measured with a liquid scintillation counter (Packard).
The inhibition ratio of the test compound against the α2C-adrenoceptor binding (^3H-MK-912 binding) was calculated using the following equation.
Inhibition ratio (%)={1−(amount of the binding in the presence of the test compound−amount of the nonspecific binding)/(amount of the total binding−amount of the nonspecific binding)}×100
(Note) Amount of the total binding means the amount of radioactivity of ^3H-MK-912 bound in the absence of the test compound. Amount of the nonspecific binding means the amount of radioactivity of ^3H-MK-912 bound in the presence of 10 μmol/l Yohimbine (Sigma). Amount of the binding in the presence of the test compound means the amount of radioactivity of ^3H-MK-912 bound in the presence of varied concentrations of the test compound.

Row | inhibition at 0.1 µM (α2C-adrenoceptor [3]) | Structure (SMILES) | affinity to α2C-adrenoceptor (α2C-adrenoceptor [1]) | anti-dyskinesia activity [2] | further results
1 |  | Nc1ncc(CN2CCN(Cc3ccncc3)CC2)c2nc(-c3ccco3)nn12 [Compound 35, 5-Amino-2-(2-furyl)-8-[4-(4-pyridylmethyl)piperazin-1-ylmethyl][1,2,4]triazolo[1,5-c]pyrimidine] |  |  | melting point: 168.7 to 169.2 °C
2 |  | CC1c2ccccc2CN1CC1=NCCN1 (centres unmarked) [BRL44408] | low affinity | did not show anti-dyskinesia activity | 
3 |  | COc1ccccc1N1CCN(CCN2C(=O)c3ccccc3C(C)(C)C2=O)CC1 [ARC239] | having an affinity to α2C-adrenoceptor | showed anti-dyskinesia activity | 
4 | 70% | Nc1ncc(CN2CCN(c3ncccn3)CC2)c2nc(-c3ccco3)nn12 [Compound 23, 5-Amino-2-(2-furyl)-8-[4-(2-pyrimidinyl)piperazin-1-ylmethyl][1,2,4]triazolo[1,5-c]pyrimidine] |  |  | 
5 |  | c1ccc2c(c1)OCC(C1=NCCN1)O2 (centres unmarked) [idazoxan] | having an affinity to α2C-adrenoceptor | showed anti-dyskinesia activity | 
6 | 91% | Nc1ncc(CN2CCN(c3ccccc3Cl)CC2)c2nc(-c3ccco3)nn12 [Compound 49, 5-Amino-8-[4-(2-chlorophenyl)piperazin-1-ylmethyl]-2-(2-furyl)[1,2,4]triazolo[1,5-c]pyrimidine] |  |  | 
7 | 80% | Nc1ncc(CN2CCN(c3ccccc3)CC2)c2nc(-c3ccco3)nn12 [Compound 2, 5-Amino-2-(2-furyl)-8-(4-phenylpiperazin-1-ylmethyl)[1,2,4]triazolo[1,5-c]pyrimidine] |  |  | 
8 | 60% | O=c1[nH]cc(CN2CCN(c3ccccc3)CC2)c2nc(-c3ccco3)nn12 [Compound 483, 2-(2-Furyl)-8-(4-phenylpiperazin-1-ylmethyl)-6H-[1,2,4]triazolo[1,5-c]pyrimidin-5-one] |  |  | 
